PMC2746040 (Synapse (New York, N.Y.), 2009)
Where “and” joins values, the source holds several entries; their conditions need not be identical. Equal entries are not always repeated. Where two headings read alike, the source gives them in different places.

Legend:
D2L-YFP = test: Agonist-induced receptor internalization assessed via confocal microscopy; type: cell-based; details: 15 min, room temperature, 50 nM MNPA or 10 μM dopamine
D2L DAR [1] = target: T1, D2L DAR (Rattus norvegicus, UniProt P61169); type: cell-based; details: for % Maximum inhibition: 3 μM forskolin-stimulated cAMP accumulation, 10 min 37°C, HEK293T
D2L DAR [2] = target: T1, D2L DAR; type: binding
D2L DAR [3] = target: T1, D2L DAR; type: binding; details: intact cells; for hill coefficient: [3H]sulpiride competition
D3 DAR [4] = target: T2, D3 DAR (Rattus norvegicus, UniProt P19020); type: cell-based
D3 DAR [5] = target: T2, D3 DAR; type: binding; details: read-out: KiL
D2L DAR [6] = target: T1, D2L DAR; type: binding; details: for % decrease of Bmax: by Gpp(NH)p 100 μM
D2L DAR [7] = target: T1, D2L DAR; type: cell-based; details: 50 nM MNPA or 10 μM dopamine

T1 sequence (P61169 whole entry): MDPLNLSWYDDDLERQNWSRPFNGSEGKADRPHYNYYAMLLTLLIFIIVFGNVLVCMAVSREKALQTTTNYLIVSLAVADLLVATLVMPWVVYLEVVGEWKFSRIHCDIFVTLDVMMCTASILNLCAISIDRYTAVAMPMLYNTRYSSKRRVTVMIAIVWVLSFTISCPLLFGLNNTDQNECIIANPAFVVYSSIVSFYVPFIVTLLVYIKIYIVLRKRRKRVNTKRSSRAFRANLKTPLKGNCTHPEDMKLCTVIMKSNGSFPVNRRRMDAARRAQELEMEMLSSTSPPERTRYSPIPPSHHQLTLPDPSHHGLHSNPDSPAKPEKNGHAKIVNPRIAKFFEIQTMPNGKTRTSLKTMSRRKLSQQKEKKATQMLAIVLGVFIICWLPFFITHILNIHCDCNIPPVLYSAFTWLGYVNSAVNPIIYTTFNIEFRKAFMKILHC
T2 sequence (P19020 whole entry): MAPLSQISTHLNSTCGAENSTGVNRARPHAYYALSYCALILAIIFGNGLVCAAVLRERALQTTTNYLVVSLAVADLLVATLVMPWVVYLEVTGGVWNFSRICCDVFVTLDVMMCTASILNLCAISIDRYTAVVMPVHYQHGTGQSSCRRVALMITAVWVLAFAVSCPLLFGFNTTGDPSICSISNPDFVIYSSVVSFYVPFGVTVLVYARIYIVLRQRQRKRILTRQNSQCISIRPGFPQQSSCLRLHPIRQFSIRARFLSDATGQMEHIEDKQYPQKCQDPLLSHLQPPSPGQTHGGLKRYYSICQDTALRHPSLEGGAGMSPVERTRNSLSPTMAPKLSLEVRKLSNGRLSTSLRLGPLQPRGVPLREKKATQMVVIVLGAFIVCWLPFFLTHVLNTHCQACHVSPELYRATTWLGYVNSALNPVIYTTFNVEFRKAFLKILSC

NCCc1ccc(O)c(O)c1 [Dopamine, dopamine, reference compound]
internalization of the D2-YFP receptor (confocal images) (D2L-YFP): some of the D2-YFP fluorescence is apparent in punctuated, vesicle-like structures in the cytosol

CCCN1CCc2cc(OC)cc3c2[C@H]1Cc1ccc(O)c(O)c1-3 [MNPA, (R)-2-^11CH3O-N-n-propylnorapomorphine]
IC50 (D2L DAR [1]; inhibition of forskolin-stimulated cAMP accumulation, no antagonist): 0.33 ± 0.26 nM | Ki (D2L DAR [2]; read-out: KiH, high affinity state, absence of GTP, [3H]methylspiperone ~0.2 nM): 0.09 ± 0.02 nM | Ki (D2L DAR [2]; read-out: KiL, + GTP 100 μM, single site): 13.7 ± 3.3 nM | Ki (D2L DAR [2]; read-out: KiL, low affinity state, absence of GTP): 16.9 ± 3.2 nM | Ki (D2L DAR [3]; [3H]sulpiride ~2 nM, 1 hour 37°C, single site): 109 ± 52 nM | IC50 (D3 DAR [4]; 3 μM forskolin, D3 DAR + AC-V, no antagonist): 3.43 nM | EC50 (D3 DAR [4]; read-out: EC50 value for inhibiting D3 DAR activity): 3.4 nM | Ki (D3 DAR [5]; + GTP 100 μM (dopamine: one-site fit)): 1.09 ± 1.7 nM | Ki (D3 DAR [5]; absence of GTP (dopamine: one-site fit)): 1.02 ± 0.2 nM

CCCN1CCc2cc(O[11CH3])cc3c2[C@H]1Cc1ccc(O)c(O)c1-3 [MNPA, (R)-2-^11CH3O-N-n-propylnorapomorphine]
% Maximum inhibition (D2L DAR [1]): 82 ± 3% | agonist character at the D2L DAR (D2L DAR [1]; cAMP accumulation): potent and full agonist | fold lower Ki values than dopamine (D2L DAR [2]): 200-1000 fold | % RH (percentage of receptors configured in the GTP sensitive high-affinity state) (D2L DAR [2]; absence of GTP): 24 ± 1% | hill coefficient (D2L DAR [3]): 1.7 ± 0.2 | fold increase of Kd by Gpp(NH)p (D2L DAR [6]; Gpp(NH)p 100 μM): ~2 fold | % decrease of Bmax (D2L DAR [6]): 21 ± 9% | % decrease of Bmax (D2L DAR [6]; listed as [^3H]MNPA): 17-21% | % decrease of Bmax (D2L DAR [7]; Arrestin2 co-transfection): 53 ± 2% | Bmax of [3H]sulpiride after agonist pretreatment (D2L DAR [7]; Arrestin2 co-transfection): 3.00 ± 0.33 fmol/10^5cells | % decrease of Bmax (D2L DAR [7]; Arrestin3 co-transfection): 68 ± 8% | Bmax of [3H]sulpiride after agonist pretreatment (D2L DAR [7]; Arrestin3 co-transfection): 2.75 ± 0.27 fmol/10^5cells | % decrease of Bmax (D2L DAR [7]; pcDNA transfection): 23% and 23 ± 7% | Bmax of [3H]sulpiride after agonist pretreatment (D2L DAR [7]; pcDNA transfection): 7.25 ± 0.53 fmol/10^5cells | fold higher EC50 at D3 DAR compared to D2 DAR (D3 DAR [4]): ~10 fold | fold reduction in potency by (+)-butaclamol (D3 DAR [4]; 10 μM (+)butaclamol): 100 fold | agonist character at the D3 DAR (D3 DAR [4]; cAMP accumulation): full agonist | potency relative to dopamine at the D3 DAR (D3 DAR [4]; cAMP accumulation): slightly less potent than dopamine | inhibition of forskolin stimulated cAMP accumulation (D3 DAR [4]; maximal extent): 42-43% | internalization of the D2-YFP receptor (confocal images) (D2L-YFP): promotes internalization of the D2-YFP receptor

CN1CN(c2ccccc2)C2(CCN(CCCC(=O)c3ccc(F)cc3)CC2)C1=O [MSP, methylspiperone, reference compound]
effect of Gpp(NH)p on binding (D2L DAR [6]; Gpp(NH)p 100 μM): no effect

CCCN1CCc2cccc3c2[C@H]1Cc1ccc(O)c(O)c1-3 [NPA, N-n-propylnorapomorphine, reference compound]
% Maximum inhibition (D2L DAR [1]): 72 ± 8% | % RH (percentage of receptors configured in the GTP sensitive high-affinity state) (D2L DAR [2]; absence of GTP): 24 ± 1% | hill coefficient (D2L DAR [3]): 1.5 ± 0.2 | % decrease of Bmax (D2L DAR [6]): 17 ± 5% | % decrease of Bmax (D2L DAR [6]; listed as [^3H]NPA): 17-21%
